Data set [1] deals with SARS-CoV-2 (USA-WA1 strain). The data set can be described thus: microbe, parasite or virus in culture. It is filed as cell-based. Conditions: Severe acute respiratory syndrome coronavirus 2, A549-ACE2, read-out: EC50 against SARS-CoV-2.
Data set [2] has as its system Omicron PV. The class given is cell-based, SARS-CoV-2.
Data set [3] deals with Wuhan PV. It is filed as cell-based, SARS-CoV-2.
The subject of data set [4] is Delta PV. The class given is cell-based, SARS-CoV-2.
Data set [5] concerns VSV-G. It is filed as cell-based, Vesicular stomatitis virus.
Data set [6] relates to rVSV-EBOV. The data set can be described thus: microbe, parasite or virus in culture. It is filed as cell-based, Ebola virus. Particulars: Zaire ebolavirus, A549-ACE2, read-out: EC50 against rVSV-EBOV.
The test system of data set [7] is A549-ACE2 cells.
The subject of data set [8] is AXL. Conditions: read-out: IC50 against AXL; cited from earlier work.
In data set [9] the test system is A549-ACE2 cells. In words: cells. Conditions: Homo sapiens, A549-ACE2, read-out: EC50 for PLD induction.
For data set [10], the system named is SARS-CoV-2. Conditions: Vero cells; cited from earlier work.
The subject of data set [11] is SARS-CoV-2. Conditions: Calu-3 cells; cited from earlier work.
Data set [12] relates to SARS-CoV-2. Conditions: Vero cells, anti-NP antibody, Mount Sinai; cited from earlier work.
The test system of data set [13] is SARS-CoV-2. Conditions: A549-ACE2 cells; cited from earlier work.
Data set [14] deals with SARS-CoV-2. Conditions: Huh7 cells; cited from earlier work.
Data set [15] deals with SARS-CoV-2. Particulars: A549-ACE2 cells, RT-PCR and plaque assay, Institut Pasteur; cited from earlier work.
A short description of data set [16]: in vitro. Conditions: human.
Data set [17] concerns Vero cells. Particulars: cited from earlier work.
The test system of data set [18] is A549-ACE2 cells. In words: MTT cell viability assay. Particulars: 0.63 μM. Background: Formazan colour is commonly taken as a measure of viable cells.
Data set [19] deals with A549-ACE2 cells. Conditions: A549-ACE2 infection assay.
The mark [20] stands for this setting: A549-ACE2 cells, compared with amodiaquine.

pEC50, pIC50: −log10 of the molar value. Read-outs that look alike come from different tables or passages of the source.

For orientation: pEC50 means −log10 of the EC50, conventionally taken in molar units. As a reminder, the pIC50 is the negative decadic logarithm of the IC50, by convention in mol/L. For orientation: fold induction means the signal under treatment as a multiple of the control signal. Low values mean little rise in signal, high ones a large rise in signal. As a reminder, the CC50 is the concentration that lowers cell viability or growth by half. As for `CCc1nc(C(N)=O)c(Nc2ccc(N3CCC(N4CCN(C)CC4)CC3)c(OC)c2)nc1NC1CCOCC1` [Gilteritinib, gilteritinib], the negative-log EC50 (pEC50) in [1] was roughly 7.00; in data set [6], 6.60; in [9], 6.41; in [10], 5.17; in [12] it was roughly 6.10; in [14] it was 6.70. For the same compound, the pEC50 in data set [15] is 6.92 to 7.22. Moreover, the “infection inhibition against Omicron PV compared to VSV-G” value in [2] is on record as “significant infection inhibition”. For the same compound, in data set [3], the “Wuhan PV infection compared to VSV-G” value is “small decrease”. Besides, the “Delta PV infection compared to VSV-G” value in data set [4] is given as “small decrease”. In addition, the “VSV-G infection relative to the level in imatinib- or nintedanib-treated cells” value in data set [5] is “around 50%”. Moreover, in data set [7] (setting [20]), the “PLD induction (in words)” value is “induces a small amount of PLD”. Moreover, the pIC50 in data set [8] is 7.39. Moreover, the anti-SARS-CoV-2 activity result in [11] is “no detectable activity”. Further, the “lowest concentration tested showing inhibition of virus replication” value in data set [13] was 0.5 µM. The same compound registered a fold induction in data set [16] of 15. Moreover, the cytotoxic concentration (CC50) in data set [17] is 37.2 µM. The “reduction of cell viability by MTT assay” value in data set [18] is given as “approximately 30%”.

For the compound `Cc1ccc(NC(=O)c2ccc(CN3CCN(C)CC3)cc2)cc1Nc1nccc(-c2cccnc2)n1` [Imatinib, imatinib], the “PLD induction (in words)” value in [7] is on record as “strong PLD inducers”.

For the compound `COC(=O)c1ccc2c(c1)NC(=O)/C2=C(\Nc1ccc(N(C)C(=O)CN2CCN(C)CC2)cc1)c1ccccc1` [Nintedanib, nintedanib], the “cytotoxicity (in words)” value in data set [19] is on record as “little cytotoxicity”. Also, in data set [7] (setting [20]), the “PLD induction (in words)” value is recorded as “strong PLD inducers”.
